Reference: PMC5190074, “BET inhibition as a new strategy for the treatment of gastric cancer” (Oncotarget, 2016)

Assays:
Assay in all cases: biochemical
Design in all cases: thermal shift assay (real-time PCR machine), melting temperature shift of recombinant bromodomains at 2 uM protein
[1] = molecular target: T1, BRD9 (Homo sapiens, UniProt Q9H8M2)
T1 construct: bromodomain
Protocol: (§1) The recombinant bromodomains at 2 μM were mixed with 10 μM inhibitors. The assays and data evaluation for melting temperatures were performed using a Real-Time PCR Mx3005p machine (Stratagene) and the protocols previously described. Experiments profiling the final compound (PNZ5) were performed in quadruplicates. […] Since its discovery in our own labs, similar inhibitors have also been disclosed by researchers at Boehringer Ingelheim [reference: patent, WO 2014/154760 [31]]. The inhibitor contains two possible acetyl-lysine mimetic moieties. In order to obtain molecular insights on the interaction of the developed inhibitor, the crystal structure of the first bromodomain of BRD4 in complex with PNZ5 was solved at 1.85 Å (Figure 2C and Supplementary Table 4, 5FBX.pdb). The inhibitor, coordinating residues and water molecules were well defined by the electron density. The dimethylisoxazole moiety mimicked the acetyl lysine side chain and formed two canonical hydrogen-bond interactions with Asn140 and water mediated hydrogen-bond with Tyr 97 (Figure 2C). The common network of waters within the binding site was also conserved in the BRD4(1)-PNZ5 complex. The compound was further stabilized by lipophilic interactions with residues forming the binding site Leu92, Leu94, Ile146. The [compound left out] substituent was well accommodated next to the WPF shelf, as well as the N1-methyl substituent that formed hydrophobic interactions with Trp81. The carbonyl on the isoindolinone established a water-mediated hydrogen bond with Lys91.

[2] = molecular target: T2, BRD7 (Homo sapiens, UniProt Q9NPI1)
T2 construct: bromodomain
Protocol: as §1

[3] = molecular target: T3, TIF1-phd-bromo (Homo sapiens, UniProt O15164)
T3 construct: gene TRIM24; PHD-bromodomain
Protocol: as §1

[4] = molecular target: T4, PB1(2) (Homo sapiens, UniProt Q86U86)
T4 construct: gene PBRM1; bromodomain 2
Protocol: as §1

[5] = molecular target: T5, BRD3(2) (Homo sapiens, UniProt Q15059)
T5 construct: bromodomain 2
Protocol: as §1

[6] = molecular target: T6, BRDT(1) (Homo sapiens, UniProt Q58F21)
T6 construct: bromodomain 1
Protocol: as §1

[7] = molecular target: T7, FALZ (Homo sapiens, UniProt Q12830)
T7 construct: gene BPTF; bromodomain
Protocol: as §1

[8] = molecular target: T8, TIF1-bromo (Homo sapiens, UniProt O15164)
T8 construct: gene TRIM24; bromodomain
Protocol: as §1

[9] = molecular target: T9, ATAD2 (Homo sapiens, UniProt Q6PL18)
T9 construct: bromodomain
Protocol: as §1

[10] = molecular target: T10, PB1(5) (Homo sapiens, UniProt Q86U86)
T10 construct: gene PBRM1; bromodomain 5
Protocol: as §1

[11] = molecular target: T11, TAF1L(2) (Homo sapiens, UniProt Q8IZX4)
T11 construct: bromodomain 2
Protocol: as §1

[12] = molecular target: T12, BRD4(2) (Homo sapiens, UniProt O60885)
T12 construct: bromodomain 2
Protocol: as §1

[13] = molecular target: T13, PB1(4) (Homo sapiens, UniProt Q86U86)
T13 construct: gene PBRM1; bromodomain 4
Protocol: as §1

[14] = molecular target: T14, PCAF (Homo sapiens, UniProt Q92831)
T14 construct: gene KAT2B; bromodomain
Protocol: as §1

[15] = molecular target: T15, PB1(1) (Homo sapiens, UniProt Q86U86)
T15 construct: gene PBRM1; bromodomain 1
Protocol: as §1

[16] = molecular target: T16, PB1(3) (Homo sapiens, UniProt Q86U86)
T16 construct: gene PBRM1; bromodomain 3
Protocol: as §1

[17] = molecular target: T17, BRPF1B (Homo sapiens, UniProt P55201)
T17 construct: gene BRPF1; isoform B bromodomain
Protocol: as §1

[18] = molecular target: T18, CECR2 (Homo sapiens, UniProt Q9BXF3)
T18 construct: bromodomain
Protocol: as §1

[19] = molecular target: T19, WDR9(2) (Homo sapiens, UniProt Q9NSI6)
T19 construct: gene BRWD1; bromodomain 2
Protocol: as §1

[20] = molecular target: T20, TAF1(2) (Homo sapiens, UniProt P21675)
T20 construct: bromodomain 2
Protocol: as §1

T13 sequence (Q86U86 whole entry): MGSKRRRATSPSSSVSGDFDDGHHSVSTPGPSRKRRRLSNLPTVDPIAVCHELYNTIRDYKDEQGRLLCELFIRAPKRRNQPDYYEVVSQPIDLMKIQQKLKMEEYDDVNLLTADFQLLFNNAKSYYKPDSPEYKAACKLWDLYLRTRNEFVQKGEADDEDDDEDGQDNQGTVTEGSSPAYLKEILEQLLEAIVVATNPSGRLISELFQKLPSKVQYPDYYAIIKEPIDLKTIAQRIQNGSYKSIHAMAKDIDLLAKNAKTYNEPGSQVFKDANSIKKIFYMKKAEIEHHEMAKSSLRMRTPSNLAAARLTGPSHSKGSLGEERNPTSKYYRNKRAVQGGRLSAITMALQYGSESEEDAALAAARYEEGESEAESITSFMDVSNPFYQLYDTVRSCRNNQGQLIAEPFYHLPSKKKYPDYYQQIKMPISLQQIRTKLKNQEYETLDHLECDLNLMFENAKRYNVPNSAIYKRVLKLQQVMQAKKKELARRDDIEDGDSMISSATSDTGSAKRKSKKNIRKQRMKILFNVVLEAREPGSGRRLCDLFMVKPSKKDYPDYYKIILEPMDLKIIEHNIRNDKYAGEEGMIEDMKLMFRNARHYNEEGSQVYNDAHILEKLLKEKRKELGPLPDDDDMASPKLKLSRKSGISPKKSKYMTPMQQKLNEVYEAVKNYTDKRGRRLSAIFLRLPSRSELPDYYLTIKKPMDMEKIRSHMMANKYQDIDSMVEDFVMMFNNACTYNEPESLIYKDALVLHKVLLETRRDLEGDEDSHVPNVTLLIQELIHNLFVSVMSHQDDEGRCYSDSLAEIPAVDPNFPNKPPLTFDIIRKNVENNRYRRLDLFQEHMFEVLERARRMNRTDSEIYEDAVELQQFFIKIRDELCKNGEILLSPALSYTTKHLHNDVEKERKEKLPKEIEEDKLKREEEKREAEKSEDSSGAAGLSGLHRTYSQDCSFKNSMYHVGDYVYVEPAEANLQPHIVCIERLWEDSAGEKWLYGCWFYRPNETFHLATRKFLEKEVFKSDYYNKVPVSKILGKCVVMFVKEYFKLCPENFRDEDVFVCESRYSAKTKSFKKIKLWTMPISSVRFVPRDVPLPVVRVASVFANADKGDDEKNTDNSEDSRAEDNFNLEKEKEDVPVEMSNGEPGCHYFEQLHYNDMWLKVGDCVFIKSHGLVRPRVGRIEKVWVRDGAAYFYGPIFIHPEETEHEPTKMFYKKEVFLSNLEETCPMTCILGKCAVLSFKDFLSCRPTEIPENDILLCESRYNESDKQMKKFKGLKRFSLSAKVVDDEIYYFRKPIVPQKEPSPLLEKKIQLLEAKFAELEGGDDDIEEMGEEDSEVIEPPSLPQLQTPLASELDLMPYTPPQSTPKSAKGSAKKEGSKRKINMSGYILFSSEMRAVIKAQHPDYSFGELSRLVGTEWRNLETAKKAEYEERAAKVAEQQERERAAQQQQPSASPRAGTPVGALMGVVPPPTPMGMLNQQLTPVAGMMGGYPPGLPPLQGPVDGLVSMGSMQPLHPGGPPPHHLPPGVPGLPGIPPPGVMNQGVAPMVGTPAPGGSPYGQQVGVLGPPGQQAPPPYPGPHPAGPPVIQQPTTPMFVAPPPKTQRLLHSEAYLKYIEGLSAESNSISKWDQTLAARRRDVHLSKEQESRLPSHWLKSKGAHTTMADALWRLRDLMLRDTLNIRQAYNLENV
T4 sequence (Q86U86 whole entry): as above
T10 sequence (Q86U86 whole entry): as above

- ΔTm at 10 µM [1]: 1.85 °C
- ΔTm at 10 µM [2]: 0.37 °C
- ΔTm at 10 µM [3]: 0.06 °C
- ΔTm at 10 µM [4]: 0.27 °C
- ΔTm at 10 µM [5]: 9.54 °C
- ΔTm at 10 µM [6]: 6.19 °C
- ΔTm at 10 µM [7]: 0.22 °C
- ΔTm at 10 µM [8]: 0.86 °C
- ΔTm at 10 µM [9]: 0.13 °C
- ΔTm at 10 µM [10]: 0.28 °C
- ΔTm at 10 µM [11]: 0.51 °C
- ΔTm at 10 µM [12]: 7.04 °C
- ΔTm at 10 µM [13]: 0.36 °C
- ΔTm at 10 µM [14]: 0.45 °C
- ΔTm at 10 µM [15]: 0.79 °C
- ΔTm at 10 µM [16]: 0.12 °C
- ΔTm at 10 µM [17]: 0.89 °C
- ΔTm at 10 µM [18]: 0.19 °C
- ΔTm at 10 µM [19]: 0.38 °C
- ΔTm at 10 µM [20]: 0.19 °C
SMILES: Cc1noc(C)c1-c1ccc2c(c1)[C@H](c1ccccc1)N(C)C2=O [PNZ5]
